Reference: patent US8563741B2, “CDK inhibitors containing a zinc binding moiety” (Curis, Inc., priority 2007, dated 2013)

What was measured:
HDAC = HDAC fluorimetric assay kit (AK-500, Biomol), HeLa nuclear extract; format: biochemical
Protocol: HDAC inhibitors were screened using an HDAC fluorimetric assay kit (AK-500, Biomol, Plymouth Meeting, Pa.). […] Each assay was setup as follows: Defrosted all kit components and kept on ice until use. Diluted HeLa nuclear extract 1:29 in Assay Buffer (50 mM Tris/Cl, pH 8.0, 137 mM NaCl, 2.7 mM KCl, 1 mM MgCl2). Prepared dilutions of Trichostatin A (TSA, positive control) and tested compounds in assay buffer (5× of final concentration). Diluted Fluor de LysTM Substrate in assay buffer to 100 uM (50 fold=2× final). Diluted Fluor de LysTM developer concentrate 20-fold (e.g. 50 μl plus 950 μl Assay Buffer) in cold assay buffer. Second, diluted the 0.2 mM Trichostatin A 100-fold in the 1× Developer (e.g. 10 μl in 1 ml; final Trichostatin A concentration in the 1× Developer=2 μM; final concentration after addition to HDAC/Substrate reaction=1 μM). Added Assay buffer, diluted trichostatin A or test inhibitor to appropriate wells of the microtiter plate. Added diluted HeLa extract or other HDAC sample to all wells except for negative controls. Allowed diluted Fluor de LysTM Substrate and the samples in the microtiter plate to equilibrate to assay temperature (e.g. 25 or 37° C. Initiated HDAC reactions by adding diluted substrate (25 μl) to each well and mixing thoroughly. Allowed HDAC reactions to proceed for 1 hour and then stopped them by addition of Fluor de LysTM Developer (50 μl). Incubated plate at room temperature (25° C.) for 10-15 min. Read samples in a microtiter-plate reading fluorimeter capable of excitation at a wavelength in the range 350-380 nm and detection of emitted light in the range 440-460 nm.

CDK2/cyclinE = target: T1, CDK2/cyclinE (Homo sapiens, UniProt P24941); experiment: CDK activity assay with p33 ATP, CDK2/cyclinE; format: biochemical; conditions: 1 μM ATP
T1 construct: C-terminal 6His-tagged, recombinant full-length CDK2 (MW=34 kDa); 6His (C); made in house; host or cells: Sf21 cells (baculovirus)
Protocol: CDK2/cyclinE (Accession Number for CDK2; EMBL M68520, for cyclinE1; GenBank NM_001238):
C-terminal 6His-tagged, recombinant full-length CDK2 (MW=34 kDa) in complex with N-terminal GST-tagged, recombinant full-length cyclinE1 (MW=74 kDa) were expressed with baculovirus system in Sf21 cells. Recombinant proteins were purified using Ni2+/NTA agarose and the purity of recombinant protein complex was measured to be around 76% by SDS-PAGE and Coomassie blue staining. Specific Activity of recombinant CDK2/cyclinE was 1336 U/mg, where one unit of CDK2/cylinE1 activity is defined as 1 nmol phosphate incorporated into 0.1 mg/ml histone H1 per minute at 30° C. with a final ATP concentration of 100 μM. Enzyme was stored with concentration of 0.1 mg/ml in 50 mM Tris/HCl pH 7.5, 150 mM NaCl, 0.03% Brij-35, 0.1 mM EGTA, 0.2 mM PMSF, 1 mM benzamidine, 0.1% 2-mercaptoethanol, 270 mM sucrose.

IC50 (HDAC) [nM] | IC50 (CDK2/cyclinE) [nM] | melting point [°C] | CDK2/cyclinE IC50 (CDK2/cyclinE) | Structure (SMILES)
> 10000 | < 100 | 176 to 180 | – | CC(C)(C)c1cnc(CSc2cnc(NC(=O)C3CCN(CCCC(=O)NO)CC3)s2)o1 [Compound 1, N-(5-((5-tert-butyloxazol-2-yl)methylthio)thiazol-2-yl)-1-(4-(hydroxyamino)-4-oxobutyl)piperidine-4-carboxamide]
1000 to 10000 | < 100 | 93 to 97 | – | CC(C)(C)c1cnc(CSc2cnc(NC(=O)C3CCN(CCCCC(=O)NO)CC3)s2)o1 [Compound 2, N-(5-((5-tert-butyloxazol-2-yl)methylthio)thiazol-2-yl)-1-(5-(hydroxyamino)-5-oxopentyl)piperidine-4-carboxamide]
1000 to 10000 | < 100 | 127 to 130 | – | CC(C)(C)c1cnc(CSc2cnc(NC(=O)C3CCN(CCCCCC(=O)NO)CC3)s2)o1 [Compound 3, N-(5-((5-tert-butyloxazol-2-yl)methylthio)thiazol-2-yl)-1-(6-(hydroxyamino)-6-oxohexyl)piperidine-4-carboxamide]
100 to 1000 | < 100 | 113 to 115 | – | CC(C)(C)c1cnc(CSc2cnc(NC(=O)C3CCN(CCCCCCC(=O)NO)CC3)s2)o1 [Compound 4, N-(5-((5-tert-butyloxazol-2-yl)methylthio)thiazol-2-yl)-1-(7-(hydroxyamino)-7-oxoheptyl)piperidine-4-carboxamide]
100 to 1000 | < 100 | – | – | CC(C)(C)c1cnc(CSc2cnc(NC(=O)Cc3ccc(OCCCCC(=O)NO)cc3)s2)o1 [Compound 10, 5-(4-(2-(5-((5-tert-butyloxazol-2-yl)methylthio)thiazol-2-ylamino)-2-oxoethyl)phenoxy)-N-hydroxypentanamide]
100 to 1000 | < 100 | – | – | CC(C)(C)c1cnc(CSc2cnc(NC(=O)Cc3ccc(OCCCCCC(=O)NO)cc3)s2)o1 [Compound 11]
100 to 1000 | – | – | – | CC(C)(C)c1cnc(CSc2cnc(NC(=O)CCCNCCCCCC(=O)NO)s2)o1 [Compound 16, 6-(4-(5-((5-tert-butyloxazol-2-yl)methylthio)-thiazol-2-ylamino)-4-oxobutylamino)-N-hydroxyhexanamide]
100 to 1000 | < 100 | – | – | CC(C)(C)c1cnc(CSc2cnc(NC(=O)CCCNCCCCCCC(=O)NO)s2)o1 [Compound 17, 7-(4-(5-((5-tert-butyloxazol-2-yl)methylthio)-thiazol-2-ylamino)-4-oxobutylamino)-N-hydroxyheptanamide]
100 to 1000 | < 100 | – | – | CC(C)(C)c1cnc(CSc2cnc(NC(=O)c3ccc(/C=C/C(=O)NO)cc3)s2)o1 [Compound 18, (E)-N-(5-((5-tert-butyloxazol-2-yl)methylthio)thiazol-2-yl)-4-(3-(hydroxylamino)-3-oxoprop-1-enyl)benzamide]
100 to 1000 | < 100 | – | – | CC(C)(C)c1cnc(CSc2cnc(NC(=O)c3cccc(/C=C/C(=O)NO)c3)s2)o1 [Compound 19, (E)-N-(5-((5-tert-butyloxazol-2-yl)methylthio)-thiazol-2-yl)-3-(3-(hydroxylamino)-3-oxoprop-1-enyl)benzamide]
< 100 | < 100 | – | – | CC(C)(C)c1cnc(CSc2cnc(NCC3CCN(c4ncc(C(=O)NO)cn4)CC3)s2)o1 [Compound 21, 2-(4-((5-((5-tert-butyloxazol-2-yl)methylthio)-thiazol-2-ylamino)methyl)piperidin-1-yl)-N-hydroxypyrimidine-5-carboxamide]
– | 1000 to 10000 | – | – | CC(C)(C)c1cnc(CSc2nnc(NC(=O)CCCCCCC(=O)NO)s2)o1 [Compound 22, N^1-(5-((5-tert-butyloxazol-2-yl)methylthio)-1,3,4-thiadiazol-2-yl)-N^8-hydroxyoctanediamide]
< 100 | < 100 | 93 to 95 | – | CC(C)(C)c1cnc(CSc2cnc(NC(=O)Cc3ccc(OCCC(=O)NO)cc3)s2)o1 [Compound 23, 3-(4-(2-(5-((5-tert-butyloxazol-2-yl)methylthio)-thiazol-2-ylamino)-2-oxoethyl)phenoxy)-N-hydroxypropanamide]
– | < 100 | – | – | CC(C)(C)c1cnc(CSc2cnc(NC(=O)c3ccc(OCCCCC(=O)NO)cc3)s2)o1 [Compound 24, N-(5-((5-tert-butyloxazol-2-yl)methylthio)thiazol-2-yl)-4-(5-(hydroxyamino)-5-oxopentyloxy)benzamide]
100 to 1000 | < 100 | – | – | CC(C)(C)c1cnc(CSc2cnc(NC(=O)c3ccc(OCCCCCC(=O)NO)cc3)s2)o1 [Compound 25, N-(5-((5-tert-butyloxazol-2-yl)methylthio)thiazol-2-yl)-4-(6-(hydroxyamino)-6-oxohexyloxy)benzamide]
100 to 1000 | < 100 | – | – | CC(Sc1cnc(NC(=O)Cc2ccc(OCCCC(=O)NO)cc2)s1)c1ncc(C(C)(C)C)o1 (centres unmarked) [Compound 26, 4-(4-(2-(5-(1-(5-Tert-butyloxazol-2-yl)ethylthio)-thiazol-2-ylamino)-2-oxoethyl)phenoxy)-N-hydroxybutanamide]
100 to 1000 | < 100 | – | – | CC(C)(C)c1cnc(CSc2cnc(NC(=O)C(C)(C)c3ccc(OCCCC(=O)NO)cc3)s2)o1 [Compound 27, 4-(4-(1-(5-((5-Tert-butyloxazol-2-yl)methylthio)-thiazol-2-ylamino)-2-methyl-1-oxopropan-2-yl)phenoxy)-N-hydroxybutanamide]
100 to 1000 | < 100 | – | – | CC(C)(C)c1cnc(CSc2cnc(NC(=O)Nc3ccc(OCCCC(=O)NO)cc3)s2)o1 [Compound 29, 4-(4-(3-(5-((5-Tert-butyloxazol-2-yl)methylthio)-thiazol-2-yl)ureido)phenoxy)-N-hydroxybutanamide]
100 to 1000 | 1000 to 10000 | – | – | CC(C)(C)c1cnc(CSc2nnc(NC(=O)Cc3ccc(OCCCC(=O)NO)cc3)s2)o1 [Compound 30, 4-(4-(2-(5-((5-tert-butyloxazol-2-yl)methylthio)-1,3,4-thiadiazol-2-ylamino)-2-oxoethyl)phenoxy)-N-hydroxybutanamide]
< 100 | < 100 | – | – | CC(C(=O)Nc1ncc(SCc2ncc(C(C)(C)C)o2)s1)c1ccc(OCCCC(=O)NO)cc1 (centres unmarked) [Compound 31, 4-(4-(1-(5-((5-Tert-butyloxazol-2-yl)methylthio)-thiazol-2-ylamino)-1-oxopropan-2-yl)phenoxy)-N-hydroxybutanamide]
< 100 | 1000 to 10000 | – | – | CC(C)(C)c1cnc(CSc2cnc(NS(=O)(=O)c3cccc(/C=C/C(=O)NO)c3)s2)o1 [Compound 32, (E)-3-(3-(N-(5-((5-tert-butyloxazol-2-yl)methylthio)thiazol-2-yl)sulfamoyl)phenyl)-N-hydroxyacrylamide]
100 to 1000 | – | – | No | CC(C)(C)c1cnc(CSc2cnc(NS(=O)(=O)c3ccc(C(=O)NO)cc3)s2)o1 [Compound 33, 4-(N-(5-((5-tert-butyloxazol-2-yl)methylthio)-thiazol-2-yl)sulfamoyl)-N-hydroxybenzamide]
< 100 | – | – | No | CC(C)(C)c1cnc(CSc2cnc(NS(=O)(=O)c3ccc(/C=C/C(=O)NO)cc3)s2)o1 [Compound 34, (E)-3-(4-(N-(5-((5-tert-butyloxazol-2-yl)methylthio)-thiazol-2-yl)sulfamoyl)phenyl)-N-hydroxyacrylamide]
100 to 1000 | < 100 | – | – | CC(C)(C)c1cnc(CSc2cnc(NC(=O)c3ccc(OCCCC(=O)NO)cc3)s2)o1 [Compound 39]
100 to 1000 | < 100 | – | – | CC(C)(C)c1cnc(CSc2cnc(NC(=O)c3ccc(OCCCCCCC(=O)NO)cc3)s2)o1 [Compound 40]

Structure (SMILES) | IC50 (HDAC) [nM] | IC50 (CDK2/cyclinE) [nM] | melting point [°C] | CDK2/cyclinE IC50 (CDK2/cyclinE)
CC(C)(C)c1cnc(CSc2cnc(NC(=O)Oc3ccc(OCCCC(=O)NO)cc3)s2)o1 [Compound 28, 4-(4-(hydroxyamino)-4-oxobutoxy)phenyl-5-((5-tert-butyloxazol-2-yl)methylthio)thiazol-2-ylcarbamate] | – | < 100 | – | –
